# Experimental data taken from US9499550B2 (BRISTOL-MYERS SQUIBB COMPANY, priority 2012, dated 2016).
# Where two headings read alike, the source gives them in different places.
# Experiments:
# [1] = tested on: HCV genotype 1b (Con1) replicon in HUH-7 cells; test: HCV replicon luciferase reporter assay, genotype 1b; assay type: cell-based; conditions: Hepatitis C virus, Huh-7, 72 h, HCV genotype 1b replicon luciferase assay, 3 days incubation
# Summary of the method: (§1)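 Replicon inhibition for both genotypes was measured as Renilla luciferase signal (EnduRen, 7.5 μM final, 2 h) after 3-day, 37° C exposure of replicon-bearing HUH-7 cells in 4% FCS DMEM, 0.5% DMSO. The 1b construct carries S1179I; the 1a H77 construct carries P1496L and S2204I. Twenty-point, 3-fold dilutions were fitted four-parametrically for EC50, and CC50 was taken from multiplexed Cell Titer-Blue.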
# [2] = tested on: HCV genotype 1a (H77 strain) replicon in HUH-7 cells; test: HCV replicon luciferase reporter assay, genotype 1a; assay type: cell-based; conditions: Hepatitis C virus, Huh-7, 72 h, HCV genotype 1a replicon luciferase assay, 3 days incubation
# Summary of the method: as §1
# [3] = range class, read-out: LE_1b (EC50, range)
# [4] = range class, read-out: LE_1a (EC50, range)
Structure (SMILES),"EC50 [1, 3]","EC50 [2, 4]",EC50 ([1]; read-out: LE_1b (EC50)),EC50 ([2]; read-out: LE_1a (EC50))
"COc1cc(F)cc2c(O[C@@H]3C[C@H]4C(=O)N[C@]5(C(=O)NS(=O)(=O)C6(C)CC6)C[C@H]5/C=C\CC[C@@H](C)C[C@@H](C)[C@H](NC(=O)O[C@@H]5C[C@@H]6C[C@@H]6C5)C(=O)N4C3)nccc12 [Compound 3160, (1R,3r,5S)-bicyclo[3.1.0]hexan-3-yl((2R,6S,7R,9R,13aS,14aR,16aS,Z)-2-((7-fluoro-5-methoxyisoquinolin-1-yl)oxy)-7,9-dimethyl-14a-(((1-methylcyclopropyl)sulfonyl)carbamoyl)-5,16-dioxo-1,2,3,5,6,7,8,9,10,11,13a,14,14a,15,16,16a-hexadecahydrocyclopropa[e]pyrrolo[1,2-a][1,4]diazacyclopentadecin-6-yl)carbamate]",< 5.46 nM,< 5.46 nM,,
"COc1cc(F)cc2c(O[C@@H]3C[C@H]4C(=O)N[C@]5(C(=O)NS(=O)(=O)C6(C)CC6)C[C@H]5/C=C\CC[C@H](C)C[C@@H](C)[C@H](NC(=O)OCC5(C)CC5)C(=O)N4C3)nccc12 [Compound 3161, (1-methylcyclopropyl)methyl ((2R,6S,7R,9S,13aS,14aR,16aS,Z)-2-((7-fluoro-5-methoxyisoquinolin-1-yl)oxy)-7,9-dimethyl-14a-(((1-methylcyclopropyl)sulfonyl)carbamoyl)-5,16-dioxo-1,2,3,5,6,7,8,9,10,11,13a,14,14a,15,16,16a-hexadecahydrocyclopropa[e]pyrrolo[1,2-a][1,4]diazacyclopentadecin-6-yl)carbamate]",< 5.46 nM,4.82 to 103 nM,,
"COc1cc(F)cc2c(O[C@@H]3C[C@H]4C(=O)N[C@]5(C(=O)NS(=O)(=O)C6(C)CC6)C[C@H]5/C=C\CC[C@@H](C)C[C@@H](C)[C@H](NC(=O)OCC5(C)CC5)C(=O)N4C3)nccc12 [Compound 3162, (1-methylcyclopropyl)methyl ((2R,6S,7R,9R,13aS,14aR,16aS,Z)-2-((7-fluoro-5-methoxyisoquinolin-1-yl)oxy)-7,9-dimethyl-14a-(((1-methylcyclopropyl)sulfonyl)carbamoyl)-5,16-dioxo-1,2,3,5,6,7,8,9,10,11,13a,14,14a,15,16,16a-hexadecahydrocyclopropa[e]pyrrolo[1,2-a][1,4]diazacyclopentadecin-6-yl)carbamate]",< 5.46 nM,< 5.46 nM,,
"COc1cc(F)cc2c(O[C@@H]3C[C@H]4C(=O)N[C@]5(C(=O)NS(=O)(=O)C6CC6)C[C@H]5/C=C\CC[C@H](C)C[C@@H](C)[C@H](NC(=O)OC(C)(C)C)C(=O)N4C3)nccc12 [Compound 3163, tert-butyl ((2R,6S,7R,9S,13aS,14aR,16aS,Z)-14a-((cyclopropylsulfonyl)carbamoyl)-2-((7-fluoro-5-methoxyisoquinolin-1-yl)oxy)-7,9-dimethyl-5,16-dioxo-1,2,3,5,6,7,8,9,10,11,13a,14,14a,15,16,16a-hexadecahydrocyclopropa[e]pyrrolo[1,2-a][1,4]diazacyclopentadecin-6-yl)carbamate]",4.82 to 103 nM,4.82 to 103 nM,,
"COc1cc(F)cc2c(O[C@@H]3C[C@H]4C(=O)N[C@]5(C(=O)NS(=O)(=O)C6CC6)C[C@H]5/C=C\CC[C@@H](C)C[C@@H](C)[C@H](NC(=O)OC(C)(C)C)C(=O)N4C3)nccc12 [Compound 3164, tert-butyl ((2R,6S,7R,9R,13aS,14aR,16aS,Z)-14a-((cyclopropylsulfonyl)carbamoyl)-2-((7-fluoro-5-methoxyisoquinolin-1-yl)oxy)-7,9-dimethyl-5,16-dioxo-1,2,3,5,6,7,8,9,10,11,13a,14,14a,15,16,16a-hexadecahydrocyclopropa[e]pyrrolo[1,2-a][1,4]diazacyclopentadecin-6-yl)carbamate]",< 5.46 nM,< 5.46 nM,,
"COc1cc(F)cc2c(O[C@@H]3C[C@H]4C(=O)N[C@]5(C(=O)NS(=O)(=O)C6CC6)C[C@H]5/C=C\CC[C@H](C)C[C@@H](C)[C@H](NC(=O)OC(C)(C)C(F)(F)F)C(=O)N4C3)nccc12 [Compound 3165, 1,1,1-trifluoro-2-methylpropan-2-yl((2R,6S,7R,9S,13aS,14aR,16aS,Z)-14a-((cyclopropylsulfonyl)carbamoyl)-2-((7-fluoro-5-methoxyisoquinolin-1-yl)oxy)-7,9-dimethyl-5,16-dioxo-1,2,3,5,6,7,8,9,10,11,13a,14,14a,15,16,16a-hexadecahydrocyclopropa[e]pyrrolo[1,2-a][1,4]diazacyclopentadecin-6-yl)carbamate]",4.82 to 103 nM,4.82 to 103 nM,,
"COc1cc(F)cc2c(O[C@@H]3C[C@H]4C(=O)N[C@]5(C(=O)NS(=O)(=O)C6CC6)C[C@H]5/C=C\CC[C@@H](C)C[C@@H](C)[C@H](NC(=O)OC(C)(C)C(F)(F)F)C(=O)N4C3)nccc12 [Compound 3166, 1,1,1-trifluoro-2-methylpropan-2-yl((2R,6S,7R,9R,13aS,14aR,16aS,Z)-14a-((cyclopropylsulfonyl)carbamoyl)-2-((7-fluoro-5-methoxyisoquinolin-1-yl)oxy)-7,9-dimethyl-5,16-dioxo-1,2,3,5,6,7,8,9,10,11,13a,14,14a,15,16,16a-hexadecahydrocyclopropa[e]pyrrolo[1,2-a][1,4]diazacyclopentadecin-6-yl)carbamate]",< 5.46 nM,< 5.46 nM,,
"COc1cc(F)cc2c(O[C@@H]3C[C@H]4C(=O)N[C@]5(C(=O)NS(=O)(=O)C6CC6)C[C@H]5/C=C\CC[C@H](C)C[C@@H](C)[C@H](NC(=O)O[C@@H]5C[C@@H]6C[C@@H]6C5)C(=O)N4C3)nccc12 [Compound 3167, (1R,3r,5S)-bicyclo[3.1.0]hexan-3-yl((2R,6S,7R,9S,13aS,14aR,16aS,Z)-14a-((cyclopropylsulfonyl)carbamoyl)-2-((7-fluoro-5-methoxyisoquinolin-1-yl)oxy)-7,9-dimethyl-5,16-dioxo-1,2,3,5,6,7,8,9,10,11,13a,14,14a,15,16,16a-hexadecahydrocyclopropa[e]pyrrolo[1,2-a][1,4]diazacyclopentadecin-6-yl)carbamate]",< 5.46 nM,4.82 to 103 nM,,
"COc1cc(F)cc2c(O[C@@H]3C[C@H]4C(=O)N[C@]5(C(=O)NS(=O)(=O)C6CC6)C[C@H]5/C=C\CC[C@@H](C)C[C@@H](C)[C@H](NC(=O)O[C@@H]5C[C@@H]6C[C@@H]6C5)C(=O)N4C3)nccc12 [Compound 3168, (1R,3r,5S)-bicyclo[3.1.0]hexan-3-yl((2R,6S,7R,9R,13aS,14aR,16aS,Z)-14a-((cyclopropylsulfonyl)carbamoyl)-2-((7-fluoro-5-methoxyisoquinolin-1-yl)oxy)-7,9-dimethyl-5,16-dioxo-1,2,3,5,6,7,8,9,10,11,13a,14,14a,15,16,16a-hexadecahydrocyclopropa[e]pyrrolo[1,2-a][1,4]diazacyclopentadecin-6-yl)carbamate]",< 5.46 nM,< 5.46 nM,,
"COc1cc(F)cc2c(O[C@@H]3C[C@H]4C(=O)N[C@]5(C(=O)NS(=O)(=O)C6CC6)C[C@H]5/C=C\CC[C@H](C)C[C@@H](C)[C@H](NC(=O)O[C@H](C)C(F)(F)F)C(=O)N4C3)nccc12 [Compound 3169, (R)-1,1,1-trifluoropropan-2-yl ((2R,6S,7R,9S,13aS,14aR,16aS,Z)-14a-((cyclopropylsulfonyl)carbamoyl)-2-((7-fluoro-5-methoxyisoquinolin-1-yl)oxy)-7,9-dimethyl-5,16-dioxo-1,2,3,5,6,7,8,9,10,11,13a,14,14a,15,16,16a-hexadecahydrocyclopropa[e]pyrrolo[1,2-a][1,4]diazacyclopentadecin-6-yl)carbamate]",< 5.46 nM,4.82 to 103 nM,,
"COc1cc(F)cc2c(O[C@@H]3C[C@H]4C(=O)N[C@]5(C(=O)NS(=O)(=O)C6CC6)C[C@H]5/C=C\CC[C@@H](C)C[C@@H](C)[C@H](NC(=O)O[C@H](C)C(F)(F)F)C(=O)N4C3)nccc12 [Compound 3170, (R)-1,1,1-trifluoropropan-2-yl ((2R,6S,7R,9R,13aS,14aR,16aS,Z)-14a-((cyclopropylsulfonyl)carbamoyl)-2-((7-fluoro-5-methoxyisoquinolin-1-yl)oxy)-7,9-dimethyl-5,16-dioxo-1,2,3,5,6,7,8,9,10,11,13a,14,14a,15,16,16a-hexadecahydrocyclopropa[e]pyrrolo[1,2-a][1,4]diazacyclopentadecin-6-yl)carbamate]",< 5.46 nM,< 5.46 nM,,
"COc1cc(F)cc2c(O[C@@H]3C[C@H]4C(=O)N[C@]5(C(=O)NS(=O)(=O)C6CC6)C[C@H]5/C=C\CC[C@H](C)C[C@@H](C)[C@H](NC(=O)OCC5(C)CC5)C(=O)N4C3)nccc12 [Compound 3171, (1-methylcyclopropyl)methyl ((2R,6S,7R,9S,13aS,14aR,16aS,Z)-14a-((cyclopropylsulfonyl)carbamoyl)-2-((7-fluoro-5-methoxyisoquinolin-1-yl)oxy)-7,9-dimethyl-5,16-dioxo-1,2,3,5,6,7,8,9,10,11,13a,14,14a,15,16,16a-hexadecahydrocyclopropa[e]pyrrolo[1,2-a][1,4]diazacyclopentadecin-6-yl)carbamate]",< 5.46 nM,4.82 to 103 nM,,
"COc1cc(F)cc2c(O[C@@H]3C[C@H]4C(=O)N[C@]5(C(=O)NS(=O)(=O)C6CC6)C[C@H]5/C=C\CC[C@@H](C)C[C@@H](C)[C@H](NC(=O)OCC5(C)CC5)C(=O)N4C3)nccc12 [Compound 3172, (1-methylcyclopropyl)methyl ((2R,6S,7R,9R,13aS,14aR,16aS,Z)-14a-((cyclopropylsulfonyl)carbamoyl)-2-((7-fluoro-5-methoxyisoquinolin-1-yl)oxy)-7,9-dimethyl-5,16-dioxo-1,2,3,5,6,7,8,9,10,11,13a,14,14a,15,16,16a-hexadecahydrocyclopropa[e]pyrrolo[1,2-a][1,4]diazacyclopentadecin-6-yl)carbamate]",< 5.46 nM,< 5.46 nM,1.18 nM,1.04 nM
